From paper PMC6187632, “A glutaredoxin domain fused to the radical-generating subunit of ribonucleotide reductase (RNR) functions as an efficient RNR reductant” (The Journal of Biological Chemistry, 2018)

Key:
[1] = target: T1, F. ignava NrdB (Grx::NrdB fusion protein, NrdBi) (Falseniella ignava, UniProt K1LAT4); test: glutaredoxin activity, NADPH consumption at […] nm (GSH reductase coupled); format: biochemical; conditions: 4 mM GSH, 0.4 mM NADPH, pH 8.0, room temperature; Grx domain; artificial substrate
T1 construct: gene HMPREF9707_01368; full-length 496-residue fusion (Grx 4-61, ATP cone 84-169, NrdB core); E. coli BL21(DE3); dimer-tetramer equilibrium

[2] = target: T2, F. ignava NrdB (Grx::NrdB fusion protein, NrdBi) (Falseniella ignava, UniProt K1LAT4, C15S); test: as above; format: biochemical; conditions: 4 mM GSH, 0.4 mM NADPH, pH 8.0, room temperature; Grx domain, monothiol mechanism
T2 construct: gene HMPREF9707_01368; full-length 496-residue fusion (Grx 4-61, ATP cone 84-169, NrdB core); E. coli BL21(DE3); dimer-tetramer equilibrium

[3] = target: T1, F. ignava NrdB (Grx::NrdB fusion protein, NrdBi); test: biochemical; format: binding
[4] = target: T3, F. ignava RNR holoenzyme (NrdA + NrdB) (Falseniella ignava, UniProt K1LAT4); test: RNR activity; format: biochemical; conditions: weaker inhibition than dATP; ATP cone of NrdB
T3 construct: gene HMPREF9707_01368; E. coli BL21(DE3); active complex alpha2beta2; with Ribonucleoside-diphosphate reductase subunit alpha
T3 sequence (K1LAT4 1-496): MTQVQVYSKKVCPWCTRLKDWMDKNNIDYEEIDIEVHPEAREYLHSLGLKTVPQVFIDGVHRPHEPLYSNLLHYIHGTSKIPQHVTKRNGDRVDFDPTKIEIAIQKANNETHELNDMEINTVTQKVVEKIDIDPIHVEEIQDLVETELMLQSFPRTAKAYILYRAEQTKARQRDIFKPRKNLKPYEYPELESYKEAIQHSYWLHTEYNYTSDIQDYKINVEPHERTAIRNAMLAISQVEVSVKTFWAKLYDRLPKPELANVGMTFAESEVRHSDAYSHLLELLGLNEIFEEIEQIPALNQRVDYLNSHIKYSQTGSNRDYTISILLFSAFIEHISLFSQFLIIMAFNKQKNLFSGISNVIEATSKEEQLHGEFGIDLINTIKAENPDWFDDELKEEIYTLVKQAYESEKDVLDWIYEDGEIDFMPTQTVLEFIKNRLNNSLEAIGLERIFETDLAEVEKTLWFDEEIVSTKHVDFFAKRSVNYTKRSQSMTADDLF
T3 sequence (K1MC37 1-567 partner): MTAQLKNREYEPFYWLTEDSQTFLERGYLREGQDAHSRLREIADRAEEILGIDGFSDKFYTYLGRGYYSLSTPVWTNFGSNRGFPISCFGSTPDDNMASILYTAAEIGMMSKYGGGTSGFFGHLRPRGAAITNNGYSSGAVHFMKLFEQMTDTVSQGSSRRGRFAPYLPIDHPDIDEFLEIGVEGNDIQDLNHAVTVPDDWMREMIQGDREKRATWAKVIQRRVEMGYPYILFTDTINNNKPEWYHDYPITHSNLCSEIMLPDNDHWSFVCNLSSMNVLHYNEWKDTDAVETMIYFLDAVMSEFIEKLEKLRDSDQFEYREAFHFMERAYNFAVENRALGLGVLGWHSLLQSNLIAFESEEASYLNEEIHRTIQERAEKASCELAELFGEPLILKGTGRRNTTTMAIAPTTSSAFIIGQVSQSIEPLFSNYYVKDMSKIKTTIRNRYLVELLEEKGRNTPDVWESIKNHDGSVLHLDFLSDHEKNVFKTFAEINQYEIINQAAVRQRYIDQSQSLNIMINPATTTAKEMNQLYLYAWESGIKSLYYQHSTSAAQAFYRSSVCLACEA

[5] = target: T4, heterologous F. ignava NrdA/L. blandensis NrdB holoenzyme (Leeuwenhoekiella blandensis, UniProt A3XHF9); test: RNR activity (dGDP formation by HPLC); format: biochemical; conditions: GDP substrate, 2 mM dTTP, pH 8, room temperature; allosteric inhibition via L. blandensis NrdB ATP cone
T4 construct: gene MED217_17135; mixed-species complex; F. ignava NrdA His6-tagged, E. coli; with Ribonucleoside-diphosphate reductase subunit alpha (Falseniella ignava CCUG 37419)
T4 sequence (A3XHF9 1-427): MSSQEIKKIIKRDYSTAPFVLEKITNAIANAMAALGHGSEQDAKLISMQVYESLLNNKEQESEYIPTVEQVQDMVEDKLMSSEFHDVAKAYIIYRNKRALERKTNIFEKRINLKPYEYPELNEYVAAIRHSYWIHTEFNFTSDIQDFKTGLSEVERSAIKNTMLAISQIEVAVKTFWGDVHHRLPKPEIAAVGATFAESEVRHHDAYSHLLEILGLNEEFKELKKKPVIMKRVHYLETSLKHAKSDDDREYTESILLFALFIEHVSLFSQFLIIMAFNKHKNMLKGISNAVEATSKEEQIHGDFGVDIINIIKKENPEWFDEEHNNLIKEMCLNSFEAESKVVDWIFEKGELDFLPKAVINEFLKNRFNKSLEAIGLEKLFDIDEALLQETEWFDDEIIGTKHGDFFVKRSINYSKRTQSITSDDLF
T4 sequence (K1MC37 1-567 partner): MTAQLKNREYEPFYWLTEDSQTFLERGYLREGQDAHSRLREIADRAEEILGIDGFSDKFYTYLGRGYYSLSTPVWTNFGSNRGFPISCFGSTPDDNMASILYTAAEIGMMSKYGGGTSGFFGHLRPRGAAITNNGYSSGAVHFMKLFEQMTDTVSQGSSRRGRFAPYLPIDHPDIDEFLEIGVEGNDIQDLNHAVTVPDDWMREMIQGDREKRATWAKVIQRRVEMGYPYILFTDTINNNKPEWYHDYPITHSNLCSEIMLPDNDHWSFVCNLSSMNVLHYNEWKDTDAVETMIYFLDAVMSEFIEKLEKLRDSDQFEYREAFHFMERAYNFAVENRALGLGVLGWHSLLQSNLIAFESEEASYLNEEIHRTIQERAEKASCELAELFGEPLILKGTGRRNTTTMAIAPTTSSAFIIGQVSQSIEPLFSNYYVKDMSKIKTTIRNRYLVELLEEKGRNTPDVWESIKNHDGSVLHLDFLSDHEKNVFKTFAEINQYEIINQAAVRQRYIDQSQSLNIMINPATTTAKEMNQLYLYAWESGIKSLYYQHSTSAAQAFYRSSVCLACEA

[6] = target: T3, F. ignava RNR holoenzyme (NrdA + NrdB); test: RNR activity (dGDP formation by HPLC); format: biochemical
[7] = target: Facklamia ignava NrdBΔGrx (NrdB lacking the Grx domain) (Facklamia ignava); test: GEMMA (gas-phase electrophoretic macromolecule analysis); NrdB deletion proteins analysed with and without 50 uM dATP (the text does not tell the two conditions apart); 20 mM ammonium acetate pH 7.8, 1 mM DTT, 0.005% Tween 20; step: dimers to tetramer
[8] = target: the molecule itself; test: GEMMA (gas-phase electrophoretic macromolecule analysis); no effector; 0.05 mg/ml protein (0.025 mg/ml of each in mixtures), 20 mM ammonium acetate pH 7.8, 1 mM DTT, 0.005% Tween 20, room temperature
[9] = target: the molecule itself; test: SEC; Superdex 200 10/300, 0.1 mM dATP in the mobile phase; 50 mM KCl, 10 mM MgCl2, 0.1 mM DTT, 50 mM Tris-HCl pH 7.6, room temperature; single subunits 5 and 10 uM, mixture 10 and 20 uM of each
[10] = target: the molecule itself; test: SEC; Superdex 200 10/300, no effector; 50 mM KCl, 10 mM MgCl2, 0.1 mM DTT, 50 mM Tris-HCl pH 7.6, room temperature; NrdA 5 and 10 uM, NrdB 1.25-10 uM, mixture 10 uM of each

## OCCSSCCO [2-hydroxyethyl disulfide]
[1]
  Km: 600 ± 90 µM
[2]
  Km: 1300 ± 240 µM

## Nc1ncnc2c1ncn2[C@@H]1O[C@H](COP(=O)(O)OP(=O)(O)OP(=O)(O)O)[C@@H](O)[C@H]1O [ATP]
[3]
  Kd: 6.8 µM

## Nc1ncnc2c1ncn2[C@H]1C[C@H](O)[C@@H](COP(=O)(O)OP(=O)(O)O)O1 [dADP]
[3]
  Kd: 5.8 µM
[4]
  RNR activity: Titration with dADP inhibited the WT enzyme activity (Fig. S2)

## Nc1ncnc2c1ncn2[C@H]1C[C@H](O)[C@@H](COP(=O)(O)OP(=O)(O)OP(=O)(O)O)O1 [dATP]
[5]
  Ki: ~70 µM
[3]
  Kd: 0.4 µM
[6]
  Ki: 1.3 ± 0.23 µM

## Facklamia ignava NrdBΔGrx (NrdB lacking the Grx domain) (domain or fragment)
[7]
  stoichiometry N: 4

B1: Facklamia ignava NrdB (Grx::ATP-cone::NrdB fusion protein, NrdBi) (enzyme, UniProt K1LAT4 1-496, looked up)
chain: MTQVQVYSKKVCPWCTRLKDWMDKNNIDYEEIDIEVHPEAREYLHSLGLKTVPQVFIDGVHRPHEPLYSNLLHYIHGTSKIPQHVTKRNGDRVDFDPTKIEIAIQKANNETHELNDMEINTVTQKVVEKIDIDPIHVEEIQDLVETELMLQSFPRTAKAYILYRAEQTKARQRDIFKPRKNLKPYEYPELESYKEAIQHSYWLHTEYNYTSDIQDYKINVEPHERTAIRNAMLAISQVEVSVKTFWAKLYDRLPKPELANVGMTFAESEVRHSDAYSHLLELLGLNEIFEEIEQIPALNQRVDYLNSHIKYSQTGSNRDYTISILLFSAFIEHISLFSQFLIIMAFNKQKNLFSGISNVIEATSKEEQLHGEFGIDLINTIKAENPDWFDDELKEEIYTLVKQAYESEKDVLDWIYEDGEIDFMPTQTVLEFIKNRLNNSLEAIGLERIFETDLAEVEKTLWFDEEIVSTKHVDFFAKRSVNYTKRSQSMTADDLF
notes: NrdB (NrdBi) of Facklamia ignava CCUG 37419, 496 residues: Grx domain (residues 4-61), ATP cone (residues 84-169), then the NrdB proper; amplified from genomic DNA with primers from the start ATG to the stop codon; a thrombin cleavage site follows the His6 tag; Expressed with 0.5 mM MnSO4; holds a Mn(III)/Mn(IV) cofactor; Dimer or tetramer by condition; also called WT NrdB; source: E. coli …
[8]
  stoichiometry N: 2
[9]
  stoichiometry N: 4

B2: Facklamia ignava NrdA (NrdAi) (enzyme, UniProt K1MC37 1-567, looked up)
chain: MTAQLKNREYEPFYWLTEDSQTFLERGYLREGQDAHSRLREIADRAEEILGIDGFSDKFYTYLGRGYYSLSTPVWTNFGSNRGFPISCFGSTPDDNMASILYTAAEIGMMSKYGGGTSGFFGHLRPRGAAITNNGYSSGAVHFMKLFEQMTDTVSQGSSRRGRFAPYLPIDHPDIDEFLEIGVEGNDIQDLNHAVTVPDDWMREMIQGDREKRATWAKVIQRRVEMGYPYILFTDTINNNKPEWYHDYPITHSNLCSEIMLPDNDHWSFVCNLSSMNVLHYNEWKDTDAVETMIYFLDAVMSEFIEKLEKLRDSDQFEYREAFHFMERAYNFAVENRALGLGVLGWHSLLQSNLIAFESEEASYLNEEIHRTIQERAEKASCELAELFGEPLILKGTGRRNTTTMAIAPTTSSAFIIGQVSQSIEPLFSNYYVKDMSKIKTTIRNRYLVELLEEKGRNTPDVWESIKNHDGSVLHLDFLSDHEKNVFKTFAEINQYEIINQAAVRQRYIDQSQSLNIMINPATTTAKEMNQLYLYAWESGIKSLYYQHSTSAAQAFYRSSVCLACEA
notes: NrdA (NrdAi), catalytic subunit of the class I ribonucleotide reductase of Facklamia ignava CCUG 37419; amplified from genomic DNA with primers from the start ATG to the stop codon; a thrombin cleavage site follows the His6 tag; the form rests on the printed primers (ATG to stop); source: E. coli BL21(DE3), pET-28a(+), purified (HisTrap nickel-Sepharose, Superdex 200, phenyl-Sepharose)
[10]
  stoichiometry N: 2
